Source: ChEMBL document CHEMBL1129128, “Synthesis of divalent -D-mannopyranosylated clusters having enhanced binding affinities towards concanavalin A and pea lectins” (Bioorg Med Chem Lett, 1996)

What was measured:
[1] = Inhibition of binding of concanavalin A to yeast mannan by compound was measured using peroxidase-labeled lectin assay,; parameters: species or system Saccharomyces cerevisiae
[2] = Inhibition of binding of pea lectins to yeast mannan by compound was measured using peroxidase-labeled lectin assay; parameters: species or system Saccharomyces cerevisiae
Saccharomyces cerevisiae [3] = assay: Inhibition of binding of concanavalin A to yeast mannan by compound was measured using peroxidase-labeled lectin assay, expressed relative to 2-Hydroxymethyl-6-methoxy-tetrahydro-pyran-3,4,5-triol
Saccharomyces cerevisiae [4] = assay: Inhibition of binding of pea lectins to yeast mannan by compound was measured using peroxidase-labeled lectin assay, activity expressed relative to 2-Hydroxymethyl-6-methoxy-tetrahydro-pyran-3,4,5-triol

| Structure (SMILES) | IC50 [1] [µM] | IC50 [2] [µM] | Relative potency (Saccharomyces cerevisiae [3]) | Relative potency (Saccharomyces cerevisiae [4]) |
| --- | --- | --- | --- | --- |
| O=[N+]([O-])c1ccc(O[C@H]2O[C@H](CO)[C@@H](O)[C@H](O)[C@H]2O)cc1 | 106 | > 1500 | 8.7 | 2.6 |
| CO[C@H]1O[C@H](CO)[C@@H](O)[C@H](O)[C@H]1O | 924 | 3850 | 1 | 1 |
| C=CCO[C@H]1O[C@@H](CO)[C@@H](O)[C@H](O)[C@H]1O | 261 | 940 | 3.5 | 4.1 |

Now those with a lower IC50 [1], led by results:

| IC50 [1] [µM] | IC50 [2] [µM] | Relative potency (Saccharomyces cerevisiae [3]) | Relative potency (Saccharomyces cerevisiae [4]) | Structure (SMILES) |
| --- | --- | --- | --- | --- |
| 6.7 | 129 | 138 | 29.8 | COC(=O)c1cc(N/C(S)=N/CCSCCCO[C@H]2O[C@@H](CO)[C@@H](O)[C@H](O)[C@H]2O)cc(N/C(S)=N/CCSCCCO[C@H]2O[C@@H](CO)[C@@H](O)[C@H](O)[C@H]2O)c1 |
| 36.8 | 575 | 25 | 6.7 | O=C(CCCCC/N=C(\S)Nc1ccc(O[C@H]2O[C@@H](CO)[C@@H](O)[C@H](O)[C@H]2O)cc1)Nc1cc(NC(=O)CCCCC/N=C(\S)Nc2ccc(O[C@H]3O[C@@H](CO)[C@@H](O)[C@H](O)[C@H]3O)cc2)cc(C(=O)O)c1 |
| 30.5 | 185 | 30.3 | 20.8 | O=C(O)c1cc(N/C(S)=N/CCSCCCO[C@H]2O[C@@H](CO)[C@@H](O)[C@H](O)[C@H]2O)cc(N/C(S)=N/CCSCCCO[C@H]2O[C@@H](CO)[C@@H](O)[C@H](O)[C@H]2O)c1 |
